Experimental data from the supplement of paper PMC11061612.

Legend:
[1] = test system: Becker (Low Grade Glioma); experiment: Bliss excess, mean over the matrix (fraction); higher = more synergy
Method in brief: (§1)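 Bliss excess equals the observed combination effect minus the expected value EA + EB − EA·EB, where EA and EB are the effects of each agent alone. Combination Emax is the second-highest inhibition within the matrix. Inhibition was scaled from CellTiter-Glo 2.0 luminescence, with 0 set by vehicle wells and 1 by blank wells, after 72 hours of two-drug dosing of cells plated in 1536-well plates.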

[2] = test system: ES-2 (Ovarian Carcinoma); experiment: as above
Method in brief: as §1

[3] = test system: AN3-CA (Endometrial Carcinoma); experiment: combination Emax (second highest fraction inhibited in the dose matrix, 72 h); higher = more inhibition; extreme values may be limits of the assay
Method in brief: as §1

[4] = test system: AsPC-1 (Pancreatic Carcinoma); experiment: as above
Method in brief: as §1

[5] = test system: CHL-1 (Melanoma); experiment: as above
Method in brief: as §1

[6] = test system: EB-3 (Burkitt's Lymphoma); experiment: as above
Method in brief: as §1

[7] = test system: ES-2 (Ovarian Carcinoma); experiment: as above
Method in brief: as §1

[8] = test system: HSC-3 (Oral Cavity Carcinoma); experiment: as above
Method in brief: as §1

[9] = test system: JHH-1 (Hepatocellular Carcinoma); experiment: as above
Method in brief: as §1

[10] = test system: LOUCY (T-Lymphoblastic Leukemia); experiment: as above
Method in brief: as §1

[11] = test system: NCI-H1755 (Lung Adenocarcinoma); experiment: as above
Method in brief: as §1

[12] = test system: NCI-H196 (Small Cell Lung Carcinoma); experiment: as above
Method in brief: as §1

[13] = test system: OCI-AML5 (Acute Myeloid Leukemia); experiment: as above
Method in brief: as §1

[14] = test system: OV-90 (Ovarian Carcinoma); experiment: as above
Method in brief: as §1

[15] = test system: OVTOKO (Ovarian Carcinoma); experiment: as above
Method in brief: as §1

[16] = test system: PC-14 (Lung Adenocarcinoma); experiment: as above
Method in brief: as §1

[17] = test system: RMG-I (Ovarian Carcinoma); experiment: as above
Method in brief: as §1

[18] = test system: RPMI-8866 (Chronic Myelogenous Leukemia); experiment: as above
Method in brief: as §1

[19] = test system: SK-MM-2 (Plasma Cell Myeloma); experiment: as above
Method in brief: as §1

[20] = test system: SW684 (Other Solid Carcinomas); experiment: as above
Method in brief: as §1

Row | Structure (SMILES) | Bliss excess [1] | Bliss excess [2] | combination Emax [3] | combination Emax [4] | combination Emax [5] | combination Emax [6] | combination Emax [7] | combination Emax [8] | combination Emax [9] | combination Emax [10] | combination Emax [11] | combination Emax [12] | combination Emax [13] | combination Emax [14] | combination Emax [15] | combination Emax [16] | combination Emax [17] | combination Emax [18] | combination Emax [19] | combination Emax [20]
1 | C[C@@H](c1ccc2nccn2c1)n1nnc2ncc(-c3cnn(C)c3)nc21 [Savolitinib] + CC1(C)CCC(CN2CCN(c3ccc(C(=O)NS(=O)(=O)c4ccc(NCC5CCOCC5)c([N+](=O)[O-])c4)c(Oc4cnc5[nH]ccc5c4)c3)CC2)=C(c2ccc(Cl)cc2)C1 [Venetoclax] (first compound max 1 µM, 7x7, partner max 1 µM) | -0.0182 | -0.0324 | 0.0904 | 0.107 | 0.118 | 0.253 | 0.137 | 0.107 | 0.114 | 0.976 | 0.101 | 0.128 | 0.883 | 0.133 | 0.199 | 0.177 | 0.208 | 0.0738 | 1 | 0.231
2 | CN(CCO)CC[C@H](CSc1ccccc1)Nc1ccc(S(=O)(=O)NC(=O)c2ccc(N3CCC([C@@H](O)c4ccccc4-c4ccc(Cl)cc4)CC3)cc2)cc1S(=O)(=O)C(F)(F)F [AZD4320] + CCN(CCO)CCCOc1ccc2c(Nc3cc(CC(=O)Nc4cccc(F)c4)[nH]n3)ncnc2c1 [AZD2811] (first compound max 1 µM, 7x7, partner max 1 µM) | -0.027 | -0.0208 | 0.474 | 0.541 | 0.73 | 0.241 | 0.168 | 0.664 | 0.82 | 1 | 0.43 | 0.055 | 1 | 0.743 | 0.166 | 0.395 | 0.728 | 0.952 | 1 | 0.158
3 | Cc1c2c(nn1C)CSCc1cc(n(C)n1)CSc1cc(c3ccccc3c1)OCCCc1c(C(=O)O)n(C)c3c-2c(Cl)ccc13 [AZD5991] + CN(C)CCCOc1ccc(-c2ccc3ncc4c(c3c2)n(C2CCOCC2)c(=O)n4C)cn1 [AZD0156] (first compound max 1 µM, 7x7, partner max 1 µM) | -0.0128 | 0.0018 | 0.404 | 0.24 |  | 0.371 | 0.313 | 0.873 | 0.48 | 0.638 | 0.361 | 0.205 | 1 | 0.209 | 0.319 | 0.236 | 0.293 | 0.668 | 0.355 | 0.236
4 | C=CCn1c(=O)c2cnc(Nc3ccc(N4CCN(C)CC4)cc3)nc2n1-c1cccc(C(C)(C)O)n1 [AZD1775] + C[C@@H]1COCCN1C2=NC(=NC(=C2)C3(CC3)[S@](=N)(=O)C)C4=C5C=CNC5=NC=C4 [AZD6738] (first compound max 1 µM, partner max 10 µM) | 0.0428 | 0.0105 | 0.714 | 0.475 | 0.84 | 0.855 | 0.841 | 0.63 | 0.642 | 1 | 0.899 | 0.53 | 0.981 | 0.526 | 0.56 | 0.918 | 0.686 | 0.989 | 0.705 | 0.474
5 | CC1(C)CCC(CN2CCN(c3ccc(C(=O)NS(=O)(=O)c4ccc(NCC5CCOCC5)c([N+](=O)[O-])c4)c(Oc4cnc5[nH]ccc5c4)c3)CC2)=C(c2ccc(Cl)cc2)C1 [Venetoclax] + CCN(CCO)CCCOc1ccc2c(Nc3cc(CC(=O)Nc4cccc(F)c4)[nH]n3)ncnc2c1 [AZD2811] (first compound max 1 µM, 7x7, partner max 1 µM) | 0.0074 | -0.0388 | 0.399 | 0.154 | 0.531 | 0.319 | 0.233 | 0.436 | 0.268 | 1 | 0.678 | 0.126 | 1 | 0.285 | 0.263 | 0.312 | 0.302 | 0.601 | 1 | 0.275
6 | CC1(C)CCC(CN2CCN(c3ccc(C(=O)NS(=O)(=O)c4ccc(NCC5CCOCC5)c([N+](=O)[O-])c4)c(Oc4cnc5[nH]ccc5c4)c3)CC2)=C(c2ccc(Cl)cc2)C1 [Venetoclax] + COc1cc(Nc2ncc3c(n2)-c2ccc(Cl)cc2C(c2c(F)cccc2OC)=NC3)ccc1C(=O)O [Alisertib] (first compound max 1 µM, 7x7, partner max 10 µM) | 0.0786 | -0.0017 | 0.9 | 0.136 | 0.778 | 0.418 | 0.983 | 0.61 | 0.567 | 1 | 0.66 | 0.113 | 1 | 0.248 | 0.484 | 0.741 | 0.371 | 0.89 | 1 | 0.253
7 | COc1nnc2ccc(N3CCC(c4ccc(OCCN5CCN(C)C(=O)[C@H]5C)cc4)CC3)nn12 [AZD5153] + C[C@@H]1COCCN1C2=NC(=NC(=C2)C3(CC3)[S@](=N)(=O)C)C4=C5C=CNC5=NC=C4 [AZD6738] (first compound max 1 µM, 7x7, partner max 10 µM) | 0.0137 | 0.0316 | 0.55 | 0.367 | 0.747 | 0.833 | 0.877 | 0.845 | 0.663 | 0.997 | 0.874 | 0.329 | 0.95 | 0.563 | 0.661 | 0.85 | 0.561 | 0.958 | 0.917 | 0.464
8 | CCc1c2c(nc3ccc(O)cc13)-c1cc3c(c(=O)n1C2)COC(=O)[C@]3(O)CC [SN-38] + O=C(c1cc(Cc2n[nH]c(=O)c3ccccc23)ccc1F)N1CCN(C(=O)C2CC2)CC1 [Olaparib] (first compound max 0.3 µM, 7x7, partner max 10 µM) | 0.083 |  |  | 0.156 | 0.508 | 0.682 |  | 0.847 | 0.539 | 0.764 | 0.616 |  |  | 0.553 |  | 0.696 | 0.421 | 0.994 | 0.89 | 0.556
9 | Cc1c2c(nn1C)CSCc1cc(n(C)n1)CSc1cc(c3ccccc3c1)OCCCc1c(C(=O)O)n(C)c3c-2c(Cl)ccc13 [AZD5991] + Cn1cnc2c(F)c(Nc3ccc(Br)cc3Cl)c(C(=O)NOCCO)cc21 [Selumetinib] (first compound max 1 µM, 7x7, partner max 3 µM) | -0.0092 | 0.0389 | 0.311 | 0.506 | 0.279 | 0.138 | 0.56 | 0.744 | 0.663 | 0.595 | 0.338 | 0.132 | 1 |  |  | 0.343 | 0.41 | 0.502 | 0.356 | 0.319
10 | CC(=O)c1c(C)c2cnc(Nc3ccc(N4CCNCC4)cn3)nc2n(C2CCCC2)c1=O [Palbociclib] + CN(CC[C@H](CSC1=CC=CC=C1)NC2=C(C=C(C=C2)S(=O)(=O)NC(=O)C3=CC=C(C=C3)N4CCC(CC4)[C@H](C5=CC=CC=C5C6=CC=C(C=C6)Cl)O)S(=O)(=O)C(F)(F)F)CCO [AZD4320] (first compound max 10 µM, 7x7, partner max 1 µM) |  | -0.0649 | 0.709 | 0.488 |  |  | 0.621 | 0.613 | 0.519 |  |  | 0.276 | 1 |  | 0.53 | 0.311 |  | 0.927 |  | 
11 | CN(CCO)CC[C@H](CSc1ccccc1)Nc1ccc(S(=O)(=O)NC(=O)c2ccc(N3CCC([C@@H](O)c4ccccc4-c4ccc(Cl)cc4)CC3)cc2)cc1S(=O)(=O)C(F)(F)F [AZD4320] + C[C@@H](Nc1cc(F)cc(F)c1)c1cc(C(=O)N(C)C)cc2c(=O)cc(N3CCOCC3)oc12 [AZD8186] (first compound max 1 µM, 7x7, partner max 3 µM) | 0.0186 | 0.0151 | 0.624 | 0.739 | 0.408 | 0.332 | 0.334 | 0.711 | 0.747 | 1 | 0.45 | 0.517 | 1 | 0.795 |  | 0.297 | 0.868 | 0.864 | 1 | 0.702
12 | C[C@@H](c1ccc2nccn2c1)n1nnc2ncc(-c3cnn(C)c3)nc21 [Savolitinib] + CN(CC[C@H](CSC1=CC=CC=C1)NC2=C(C=C(C=C2)S(=O)(=O)NC(=O)C3=CC=C(C=C3)N4CCC(CC4)[C@H](C5=CC=CC=C5C6=CC=C(C=C6)Cl)O)S(=O)(=O)C(F)(F)F)CCO [AZD4320] (first compound max 1 µM, 7x7, partner max 1 µM) |  | -0.0383 | 0.217 | 0.572 |  |  | 0.236 | 0.185 | 0.356 |  |  | 0.2 | 1 |  | 0.274 | 0.173 |  | 0.366 |  | 
13 | COc1nnc2ccc(N3CCC(c4ccc(OCCN5CCN(C)C(=O)[C@H]5C)cc4)CC3)nn12 [AZD5153] + CN(CC[C@H](CSC1=CC=CC=C1)NC2=C(C=C(C=C2)S(=O)(=O)NC(=O)C3=CC=C(C=C3)N4CCC(CC4)[C@H](C5=CC=CC=C5C6=CC=C(C=C6)Cl)O)S(=O)(=O)C(F)(F)F)CCO [AZD4320] (first compound max 1 µM, 7x7, partner max 1 µM) |  | 0.0277 | 0.255 | 0.559 |  |  | 0.745 | 0.712 | 0.777 |  |  | 0.276 | 1 |  | 0.495 | 0.421 |  | 0.87 |  | 
